For test [1], the system named is IL-13 induced STAT6 phosphorylation in BEAS-2B human lung epithelial cells. In words: Cellular JAKI potency assay (BEAS-2B). The class given is cell-based. As to conditions: Homo sapiens, BEAS-2B, BEAS-2B cells, read-out: BEAS2B pIC50 (converted). The method in brief: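 BEAS-2B cells were preincubated with compound (0.1% DMSO) in HBSS/HEPES/BSA for 1 h at 37 °C, then stimulated with IL-13 (80 ng/mL before addition) for 30 min. After lysis, pSTAT6 (Tyr641) was quantified by AlphaLISA SureFire; IC50 from a 4-parameter fit of percent inhibition, reported as pIC50.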

For the next test, the target named is JAK1 (Homo sapiens (Human), UniProt P23458). Nature of the test: Biochemical JAK kinase assay (LanthaScreen), JAK1. As to conditions: for Ki: read-out: JAK1 pKi (converted). The method in brief:
(§1)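 LanthaScreen format: phospho-STAT1 (pTyr701) detected with 2 nM Tb antibody after 10 mM EDTA quench. Kinase step used Km-level ATP and 200 nM STAT1 peptide, 1 h at ambient after 1 h pre-incubation. Inhibition fitted to IC50, reported as pKi.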
(In general: Time-resolved FRET reads energy transfer from a long-lived donor to a nearby acceptor.)

The next test concerns the target TYK2 (Homo sapiens (Human), UniProt P29597). In words: Biochemical JAK kinase assay (LanthaScreen), Tyk2. As to conditions: read-out: Tyk2 pKi (converted). The method, then:
A panel of four LanthaScreen JAK biochemical assays (JAK1, 2, 3 and Tyk2) were carried in a common kinase reaction buffer (50 mM HEPES, pH 7.5, 0.01% Brij-35, 10 mM MgCl2, and 1 mM EGTA). Recombinant GST-tagged JAK enzymes and a GFP-tagged STAT1 peptide substrate were obtained from Life Technologies.
Serially diluted compounds were pre-incubated with each of the four JAK enzymes and the substrate in white 384-well microplates (Corning) at ambient temperature for 1 h. ATP was subsequently added to initiate the kinase reactions in 10 μL total volume, with 1% DMSO. The final enzyme concentrations for JAK1, 2, 3 and Tyk2 are 4.2 nM, 0.1 nM, 1 nM, and 0.25 nM respectively; the corresponding Km ATP concentrations used are 25 μM, 3 μM, 1.6 μM, and 10 μM; while the substrate concentration is 200 nM for all four assays. Kinase reactions were allowed to proceed for 1 hour at ambient temperature before a 10 μL preparation of EDTA (10 mM final concentration) and Tb-anti-pSTAT1 (pTyr701) antibody (Life Technologies, 2 nM final concentration) in TR-FRET dilution buffer (Life Technologies) was added. The plates were allowed to incubate at ambient temperature for 1 h before being read on the EnVision reader (Perkin Elmer). Emission ratio signals (520 nm/495 nm) were recorded and utilized to calculate the percent inhibition values based on DMSO and background controls.
For dose-response analysis, percent inhibition data were plotted vs. compound concentrations, and IC50 values were determined from a 4-parameter robust fit model with the Prism software (GraphPad Software). Results were expressed as pIC50 (negative logarithm of IC50) and subsequently converted to pKi (negative logarithm of dissociation constant, Ki) using the Cheng-Prusoff equation.
Test compounds having a lower Ki value or higher pKi value in the four JAK assays show greater inhibition of JAK activity.

The target in a further test is JAK2 (Homo sapiens (Human), UniProt O60674). In words: Biochemical JAK kinase assay (LanthaScreen), JAK2. As to conditions: for Ki: read-out: JAK2 pKi (converted). A digest of the protocol: as §1
Sequence of JAK2 (O60674 whole entry): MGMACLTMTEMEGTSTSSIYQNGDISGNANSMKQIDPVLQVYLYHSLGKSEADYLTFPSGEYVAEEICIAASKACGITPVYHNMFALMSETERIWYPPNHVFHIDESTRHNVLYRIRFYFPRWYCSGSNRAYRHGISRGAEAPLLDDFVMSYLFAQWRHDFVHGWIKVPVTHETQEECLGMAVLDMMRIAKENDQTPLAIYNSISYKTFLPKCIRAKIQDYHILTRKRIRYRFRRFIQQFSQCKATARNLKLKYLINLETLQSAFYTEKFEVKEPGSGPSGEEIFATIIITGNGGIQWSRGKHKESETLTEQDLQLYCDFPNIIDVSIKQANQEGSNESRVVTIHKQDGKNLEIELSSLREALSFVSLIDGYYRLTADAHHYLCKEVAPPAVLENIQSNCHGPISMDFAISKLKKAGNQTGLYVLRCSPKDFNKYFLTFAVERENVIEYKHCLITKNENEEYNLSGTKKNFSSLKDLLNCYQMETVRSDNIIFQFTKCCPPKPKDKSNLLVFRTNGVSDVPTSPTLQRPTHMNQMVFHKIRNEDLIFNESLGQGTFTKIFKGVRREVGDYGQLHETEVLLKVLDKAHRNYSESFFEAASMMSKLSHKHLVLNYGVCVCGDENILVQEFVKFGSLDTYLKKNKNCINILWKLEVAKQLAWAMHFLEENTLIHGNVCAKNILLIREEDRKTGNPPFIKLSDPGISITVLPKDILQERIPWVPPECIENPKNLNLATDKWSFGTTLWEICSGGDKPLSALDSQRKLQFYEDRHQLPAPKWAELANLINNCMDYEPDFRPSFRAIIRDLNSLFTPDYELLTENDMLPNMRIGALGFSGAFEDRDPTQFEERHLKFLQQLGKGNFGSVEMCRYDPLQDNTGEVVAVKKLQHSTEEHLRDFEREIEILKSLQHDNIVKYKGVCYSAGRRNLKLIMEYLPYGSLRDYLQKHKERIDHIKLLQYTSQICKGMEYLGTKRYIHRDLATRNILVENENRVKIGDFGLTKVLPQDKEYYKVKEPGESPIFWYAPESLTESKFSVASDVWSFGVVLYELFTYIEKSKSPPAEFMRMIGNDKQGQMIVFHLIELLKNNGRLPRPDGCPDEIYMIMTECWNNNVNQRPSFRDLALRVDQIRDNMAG

Consider 25 compounds from US20240092758A1, “IMIDAZOLO INDAZOLE COMPOUNDS AS JAK INHIBITORS” (Theravance Biopharma R&D IP, LLC, priority 2021, published 2024).

Sequence of TYK2 (P29597 whole entry): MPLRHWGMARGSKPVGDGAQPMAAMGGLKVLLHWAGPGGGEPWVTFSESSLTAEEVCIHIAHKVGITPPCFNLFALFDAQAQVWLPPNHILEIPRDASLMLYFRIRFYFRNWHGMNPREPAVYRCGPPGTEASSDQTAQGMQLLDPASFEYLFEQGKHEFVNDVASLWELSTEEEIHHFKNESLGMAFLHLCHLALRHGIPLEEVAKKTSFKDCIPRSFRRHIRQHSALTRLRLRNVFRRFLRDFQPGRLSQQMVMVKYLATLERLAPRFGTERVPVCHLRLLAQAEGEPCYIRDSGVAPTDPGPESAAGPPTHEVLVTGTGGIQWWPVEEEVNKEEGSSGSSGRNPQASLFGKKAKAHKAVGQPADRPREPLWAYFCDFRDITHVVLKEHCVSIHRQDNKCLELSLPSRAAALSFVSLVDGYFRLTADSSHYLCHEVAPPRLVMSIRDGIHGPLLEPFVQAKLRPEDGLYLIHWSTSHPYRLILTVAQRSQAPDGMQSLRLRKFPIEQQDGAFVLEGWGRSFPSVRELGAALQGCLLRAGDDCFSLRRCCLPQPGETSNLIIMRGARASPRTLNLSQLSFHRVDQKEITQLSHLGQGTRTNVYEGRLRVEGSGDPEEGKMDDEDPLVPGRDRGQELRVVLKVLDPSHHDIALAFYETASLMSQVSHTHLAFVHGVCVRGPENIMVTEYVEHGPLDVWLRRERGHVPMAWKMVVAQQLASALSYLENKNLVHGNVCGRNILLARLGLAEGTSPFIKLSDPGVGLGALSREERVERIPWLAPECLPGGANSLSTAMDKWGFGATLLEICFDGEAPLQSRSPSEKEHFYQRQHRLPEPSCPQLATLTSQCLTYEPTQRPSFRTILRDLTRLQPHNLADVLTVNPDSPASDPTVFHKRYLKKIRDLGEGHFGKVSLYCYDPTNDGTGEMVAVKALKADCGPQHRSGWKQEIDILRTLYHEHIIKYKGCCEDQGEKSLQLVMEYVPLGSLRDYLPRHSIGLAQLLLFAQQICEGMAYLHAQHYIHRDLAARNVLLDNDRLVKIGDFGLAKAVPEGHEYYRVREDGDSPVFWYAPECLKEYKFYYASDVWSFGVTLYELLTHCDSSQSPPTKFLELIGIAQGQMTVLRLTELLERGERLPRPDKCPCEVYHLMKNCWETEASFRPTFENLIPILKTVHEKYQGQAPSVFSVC
Sequence of JAK1 (P23458 whole entry): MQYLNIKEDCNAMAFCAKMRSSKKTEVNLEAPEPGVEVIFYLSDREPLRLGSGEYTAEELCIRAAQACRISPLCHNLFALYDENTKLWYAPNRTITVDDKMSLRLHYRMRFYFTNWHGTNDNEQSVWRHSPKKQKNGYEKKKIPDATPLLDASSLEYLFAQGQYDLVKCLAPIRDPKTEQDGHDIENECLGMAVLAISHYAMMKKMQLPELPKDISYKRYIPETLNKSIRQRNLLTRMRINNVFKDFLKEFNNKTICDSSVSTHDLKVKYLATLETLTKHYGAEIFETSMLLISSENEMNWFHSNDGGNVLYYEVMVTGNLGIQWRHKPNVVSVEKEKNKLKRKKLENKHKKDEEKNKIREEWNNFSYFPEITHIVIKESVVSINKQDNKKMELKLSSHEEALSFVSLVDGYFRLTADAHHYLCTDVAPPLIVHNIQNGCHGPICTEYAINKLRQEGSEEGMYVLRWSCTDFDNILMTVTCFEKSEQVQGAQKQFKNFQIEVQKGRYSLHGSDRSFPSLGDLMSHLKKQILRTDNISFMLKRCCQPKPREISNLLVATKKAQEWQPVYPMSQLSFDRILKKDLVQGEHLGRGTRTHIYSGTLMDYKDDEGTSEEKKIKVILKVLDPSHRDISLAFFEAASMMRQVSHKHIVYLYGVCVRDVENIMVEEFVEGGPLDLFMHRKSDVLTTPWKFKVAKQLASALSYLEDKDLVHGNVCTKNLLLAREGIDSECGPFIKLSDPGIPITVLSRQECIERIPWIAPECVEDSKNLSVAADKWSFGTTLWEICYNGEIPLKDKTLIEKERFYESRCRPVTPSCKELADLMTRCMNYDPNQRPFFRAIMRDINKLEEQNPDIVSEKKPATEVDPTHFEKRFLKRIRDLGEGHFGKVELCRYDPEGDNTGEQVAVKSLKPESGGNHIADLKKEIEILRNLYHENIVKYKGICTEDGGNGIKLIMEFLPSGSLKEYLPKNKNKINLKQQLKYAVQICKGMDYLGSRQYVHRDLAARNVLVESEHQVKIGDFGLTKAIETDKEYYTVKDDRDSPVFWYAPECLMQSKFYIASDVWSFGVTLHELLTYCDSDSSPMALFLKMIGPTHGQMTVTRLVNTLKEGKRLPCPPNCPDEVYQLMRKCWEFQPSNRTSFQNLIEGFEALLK

With `CCc1cc(O)c(F)cc1-c1ccc2c(-c3nc(C4=CCNC4)c[nH]3)n[nH]c2c1F` [Example 18, 4-(3-(4-(2,5-dihydro-1H-pyrrol-3-yl)-1H-imidazol-2-yl)-7-fluoro-1H-indazol-6-yl)-5-ethyl-2-fluorophenol], the IC50 in test [1] is 3.16 to 10 nM. On JAK1, the “JAK1 pKi” value was “A (A represents a pKi value ≥10 (Ki≤0.1 nM))”. The Ki at TYK2 is 1 to 10 nM.
On to `CCc1cc(O)ccc1-c1ccc2c(-c3nc(C4=CCN(CCNC)C4)c[nH]3)n[nH]c2c1F` [Example 204], for which the IC50 in test [1] was 31.6 to 100 nM. In addition, the Ki at JAK1 is 0.1 to 1 nM; on TYK2 it was 1 to 10 nM.
The corresponding values for `CCc1cc(O)ccc1-c1ccc2c(-c3nc(C4=CCN(C[C@@H]5COCCN5C)C4)c[nH]3)n[nH]c2c1F` [Example 221] are 10 to 31.6 nM, 0.1 to 1 nM and 0.1 to 1 nM.
Consider `CCc1cc(O)ccc1-c1ccc2c(-c3nc(C4=CCN(C(=O)[C@@H]5CCCN5)CC4)c[nH]3)n[nH]c2c1` [Example 177], for which the IC50 in test [1] is 31.6 to 100 nM. The Ki was 0.1 to 1 nM at JAK1 and 1 to 10 nM at TYK2.
As to `CCc1cc(O)ccc1-c1ccc2c(-c3nc(C4=CCN(CCN)CC4)c[nH]3)n[nH]c2c1F` [Example 187], the IC50 in test [1] was 31.6 to 100 nM. Further, the Ki is 0.1 to 1 nM at JAK1, 0.1 to 1 nM on JAK2 and 1 to 10 nM at TYK2.
Turning to `CCc1cc(O)ccc1-c1ccc2c(-c3nc(C4=CCCN(C5CCCNC5)C4)c[nH]3)n[nH]c2c1F` (stereo not shown) [Example 216], the IC50 in test [1] was 100 to 316 nM. Besides, the Ki on JAK1 is 1 to 10 nM; on JAK2 it was 0.1 to 1 nM; on TYK2 it was 1 to 10 nM.
Regarding `CCc1cc(O)ccc1-c1ccc2c(-c3nc(C4=CCN(C(=O)[C@@H]5CCCN5)CC4)c[nH]3)n[nH]c2c1F` [Compound 16, (S)-6-(2-ethyl-4-hydroxyphenyl)-7-fluoro-3-(4-(1-prolyl-1,2,3,6-tetrahydropyridin-4-yl)-1H-imidazol-2-yl)-1H-indazole], the IC50 in test [1] is 31.6 to 100 nM. Further, the Ki at JAK1 and on TYK2 was 1 to 10 nM each time.
As to `CCc1cc(O)ccc1-c1ccc2c(-c3nc(C4=CCCN(C5CCOCC5)C4)c[nH]3)n[nH]c2c1F` [Example 69], the IC50 in test [1] is 10 to 31.6 nM. Also, the Ki at JAK1 was 0.1 to 1 nM; at JAK2, 0.1 to 1 nM; on TYK2 it was 1 to 10 nM.
`CCc1cc(O)ccc1-c1ccc2c(-c3nc(C4=CCCN(C[C@H]5COCCN5)C4)c[nH]3)n[nH]c2c1F` [Example 197]: the IC50 in test [1] was 31.6 to 100 nM. Further, the results for the Ki at JAK1 and on TYK2 were 0.1 to 1 nM and 1 to 10 nM, respectively.
For `CCc1cc(O)ccc1-c1ccc2c(-c3nc(C4=CCCN(CCN5CCOCC5)C4)c[nH]3)n[nH]c2c1F` [Example 198], in test [1], the IC50 was 10 to 31.6 nM. The Ki on JAK1 was 0.1 to 1 nM; at JAK2, 0.1 to 1 nM; at TYK2, 1 to 10 nM.
As to `CCc1cc(O)ccc1-c1ccc2c(-c3nc(C4=CCN(C5CCCCC5)CC4)c[nH]3)n[nH]c2c1F` [Example 122], the IC50 in test [1] was 31.6 to 100 nM. For the same compound, the Ki on JAK1 is 0.1 to 1 nM; on TYK2, 1 to 10 nM.
In the case of `CCc1cc(O)ccc1-c1ccc2c(-c3nc(C4=CCN(C[C@@H]5COCCN5C)CC4)c[nH]3)n[nH]c2c1F` [Example 210], in test [1], the IC50 was 10 to 31.6 nM. Besides, the results for the Ki on JAK1 and on TYK2 were 0.1 to 1 nM and 1 to 10 nM, respectively. Also, the “JAK2 pKi” value on JAK2 is reported as “A (A represents a pKi value ≥10 (Ki≤0.1 nM))”.
With `CCc1cc(O)ccc1-c1ccc2c(-c3nc(C4=CCN(CCN)C4)c[nH]3)n[nH]c2c1F` [Example 203], in test [1], the IC50 is 31.6 to 100 nM. The Ki at JAK1 was 0.1 to 1 nM; on TYK2 it was 1 to 10 nM.
On to `CCc1cc(O)ccc1-c1ccc2c(-c3nc(C4=CCNCC4)c(C)[nH]3)n[nH]c2c1` [Example 291], for which, in test [1], the IC50 was 3.16 to 10 nM. In addition, the “JAK1 pKi” value at JAK1 is listed as “A (A represents a pKi value ≥10 (Ki≤0.1 nM))”. Besides, the Ki on TYK2 was 0.1 to 1 nM.
In the case of `CCc1cc(O)ccc1-c1ccc2c(-c3nc(C4=CCN(C(=O)[C@@H](N)Cc5ccccc5)CC4)c[nH]3)n[nH]c2c1F` [Example 179], the IC50 in test [1] was 100 to 316 nM. Also, the Ki at JAK1 was 1 to 10 nM; on TYK2, 10 to 100 nM.
The corresponding values for `CCc1cc(O)ccc1-c1ccc2c(-c3nc(C4=CCN(C[C@@H]5COCCN5C(=O)OC(C)(C)C)CC4)c[nH]3)n[nH]c2c1` [Example 383] are 31.6 to 100 nM, 0.1 to 1 nM and 10 to 100 nM.
The corresponding values for `CCc1cc(O)ccc1-c1ccc2c(-c3nc(C4=CCN(C(=O)[C@@H]5CCCN5)C4)c[nH]3)n[nH]c2c1F` [Example 181] are 31.6 to 100 nM, 0.1 to 1 nM and 1 to 10 nM.
`CCc1cc(O)ccc1-c1ccc2c(-c3nc(C4=CCCN(C5CCCCC5)C4)c[nH]3)n[nH]c2c1F` [Example 126]: in test [1], the IC50 was 31.6 to 100 nM. Further, the Ki was 0.1 to 1 nM at JAK1 and 1 to 10 nM at TYK2.
The corresponding values for `CCc1cc(O)ccc1-c1ccc2c(-c3nc(C4=CCN(C5CCCNC5)C4)c[nH]3)n[nH]c2c1F` (stereo not shown) [Example 222] are 10 to 31.6 nM, 0.1 to 1 nM and 1 to 10 nM.
The corresponding values for `CCc1cc(O)ccc1-c1ccc2c(-c3nc(C4=CC(C)(C)NC(C)(C)C4)c[nH]3)n[nH]c2c1` [Example 226] are 10 to 31.6 nM, 0.1 to 1 nM and 1 to 10 nM.
For the compound `CCc1cc(O)ccc1-c1ccc2c(-c3nc(C4=CCCN(C[C@@H]5COCCN5)C4)c[nH]3)n[nH]c2c1` [Example 193], the IC50 in test [1] was 31.6 to 100 nM. For the same compound, the Ki on JAK1 was 0.1 to 1 nM; at JAK2 it was 0.1 to 1 nM; at TYK2, 1 to 10 nM.
Take `CCc1cc(O)ccc1-c1ccc2c(-c3nc(C4=CCN(CCNC)CC4)c[nH]3)n[nH]c2c1` [Example 183]: in test [1], the IC50 is 31.6 to 100 nM. Further, the Ki on JAK1 is 0.1 to 1 nM; at TYK2, 1 to 10 nM.
With `CCc1cc(O)ccc1-c1ccc2c(-c3nc(C4=CCN(C5CCN(C)CC5)CC4)c[nH]3)n[nH]c2c1` [Example 182], the IC50 in test [1] was 10 to 31.6 nM. Moreover, the “JAK1 pKi” value on JAK1 is recorded as “A (A represents a pKi value ≥10 (Ki≤0.1 nM))”. Further, the Ki on JAK2 is 0.1 to 1 nM; at TYK2, 1 to 10 nM.
Consider `CCc1cc(O)ccc1-c1ccc2c(-c3nc(C4=CCN(C5CCCNC5)CC4)c[nH]3)n[nH]c2c1F` (stereo not shown) [Example 211], for which the IC50 in test [1] is 31.6 to 100 nM. For the same compound, the Ki on JAK1 is 0.1 to 1 nM; at TYK2, 1 to 10 nM.
`CCc1cc(O)ccc1-c1ccc2c(-c3nc(C4=CCN(C(=O)[C@@H](N)Cc5ccccc5)CC4)c[nH]3)n[nH]c2c1` [Example 176]: the IC50 in test [1] was 31.6 to 100 nM. The figures for the Ki on JAK1 and at TYK2 were 0.1 to 1 nM and 1 to 10 nM, respectively.
